The results in this text go back to patent US20230159538A1, “PYRROLIDINE-PYRAZOLES AS PYRUVATE KINASE ACTIVATORS” (Global Blood Therapeutics, Inc., priority 2020, published 2023).

Broadly, the AC50 is the midpoint of the concentration-response curve, whichever way the signal moves. Read a high AC50 as activity only at high concentration.

The target of the test is T1, Human pyruvate kinase R (PKR) (Homo sapiens, UniProt P30613).
T1 construct: Human pyruvate kinase R (PKR), residues 14-574; 6x-His (N, cleaved yes); 8x-Arg (N, cleaved yes); SUMO (N, cleaved yes); host or cells: E. coli
T1 sequence (P30613 14-574): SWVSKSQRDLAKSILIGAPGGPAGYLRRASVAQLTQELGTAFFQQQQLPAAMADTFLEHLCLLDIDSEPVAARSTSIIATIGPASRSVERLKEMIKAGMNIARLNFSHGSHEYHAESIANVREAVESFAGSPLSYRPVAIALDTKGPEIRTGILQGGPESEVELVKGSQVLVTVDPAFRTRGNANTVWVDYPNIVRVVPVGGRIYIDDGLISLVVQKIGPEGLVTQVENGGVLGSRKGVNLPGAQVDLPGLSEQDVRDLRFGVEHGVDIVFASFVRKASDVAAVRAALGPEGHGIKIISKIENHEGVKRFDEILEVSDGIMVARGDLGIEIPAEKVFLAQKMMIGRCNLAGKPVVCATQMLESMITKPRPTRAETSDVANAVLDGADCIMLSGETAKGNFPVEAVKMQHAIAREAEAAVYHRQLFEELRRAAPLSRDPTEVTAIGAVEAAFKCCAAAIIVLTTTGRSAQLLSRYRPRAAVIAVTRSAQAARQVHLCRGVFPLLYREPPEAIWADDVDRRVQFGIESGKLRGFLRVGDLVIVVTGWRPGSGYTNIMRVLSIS
Kind of test: Biochemical assay for activation of pyruvate kinase R (Kinase-Glo luminescence, ATP generation). The following applies: for AC50: 0.1 nM PKR, 2 mM FBP, 0.3 mM ADP, 0.1 mM PEP; for PKR % activation: maximal activation level relative to the activation level achieved by AG-348 @ 10 μM. The method, then:
Proteins were translated as fusions with 6×-His, 8×-Arg, and SUMO at the N-terminus. […] All proteins were cloned, expressed in E. coli, and purified using similar protocols. Cells were grown at 30° C. in Luria-Bertani broth supplemented with 0.4% glucose to OD600=0.8 and induced with 0.4 mM IPTG at 16° C. for 18 hours. Cells were harvested by centrifugation, resuspended in 50 mM potassium phosphate pH 8.0, 500 mM NaCl, 25 mM imidazole pH 8.0, and 3 mM β-mercaptoethanol. Cells were lysed using a LM20 microfluidizer from Microfluidics (Westwood, Mass.). The crude lysate was immediately supplemented with 0.2 mM phenylmethylsulfonyl fluoride (PMSF) and centrifuged at 20,000 g for 20 minutes. The soluble fraction was subsequently incubated with 2 mL Ni-NTA (GE Healthcare) per 1,000 ODs for 1 hour at 4° C. Following incubation with the Ni-NTA resin, lysate was removed by pelleting resin at 2,500 g for 3 minutes and washed 3 times with 9 bed volumes of 50 mM potassium phosphate pH 8.0, 500 mM NaCl, 25 mM imidazole, and 3 mM β-mercaptoethanol. Following the batch wash Ni-NTA resin was loaded onto a gravity column and His-tagged protein was eluted with 6 bed volumes of 10 mM Tris/HCl pH 8.0, 200 mM NaCl, 500 mM imidazole, and 3 mM β-mercaptoethanol. Eluted protein was dialyzed overnight against 10 mM Tris/HCl pH 8.0, 200 mM NaCl, and 1 mM DTT and the 6×-His-8×-Arg-SUMO-tag was cleaved using a 20:1 molar ratio of protein:3C protease. The protein was purified by anion exchange chromatography on a HiTrapQ or MonoQ 10/100 GL column (GE Healthcare) via a linear NaCl gradient and twice by size exclusion chromatography using a Superdex S200 26/60 column (GE Healthcare) run in 10 mM Tris/HCl pH 8.0, 200 mM NaCl, 10 mM MgCl2, 1 mM DTT. Proteins were concentrated to ˜12 mg/mL for crystallization and flash frozen for storage.
Biochemical Assay for Activation of Pyruvate Kinase R
Activation of pyruvate kinase R (PKR) and pyruvate kinase M2 (PKM2) were measured using a luminescence based measurement of ATP generation and the Kinase-Glo luminescent kinase reagent kit.

`Cc1ncccc1[C@@H](N)C(=O)N1Cc2cn(S(=O)(=O)c3ccc4ncsc4c3)nc2C1` (single isomer, unassigned) [Compound 55, (2R)-2-amino-1-[2-(1,3-benzothiazole-6-sulfonyl)-2H,4H,5H,6H-pyrrolo[3,4-c]pyrazol-5-yl]-2-(2-methylpyridin-3-yl)ethan-1-one or (2S)-2-amino-1-[2-(1,3-benzothiazole-6-sulfonyl)-2H,4H,5H,6H-pyrrolo[3,4-c]pyrazol-5-yl]-2-(2-methylpyridin-3-yl)ethan-1-one]: the AC50 was > 10000 nM and the PKR % activation is listed as 0%.

Turning to `O=C(N1Cc2cn(S(=O)(=O)c3ccc4ncsc4c3)nc2C1)[C@@]1(c2ccccc2)CCCN1` (single isomer, unassigned) [Compound 61, 6-({5-[(2S)-2-phenylpyrrolidine-2-carbonyl]-2H,4H,5H,6H-pyrrolo[3,4-c]pyrazol-2-yl}sulfonyl)-1,3-benzothiazole or 6-({5-[(2R)-2-phenylpyrrolidine-2-carbonyl]-2H,4H,5H,6H-pyrrolo[3,4-c]pyrazol-2-yl}sulfonyl)-1,3-benzothiazole], half-maximal activity (AC50) was put at 452 nM and the PKR % activation is on record as 48%.

In turn, `C[C@@H](O)[C@H](C(=O)N1Cc2cn(S(=O)(=O)c3ccc4cn[nH]c4c3)nc2C1)c1ccccc1` (single isomer, unassigned) [Compound 62] displayed an AC50 of 47 nM and a PKR % activation of 115%.

`C[C@@H](O)[C@@H](C(=O)N1Cc2cn(S(=O)(=O)c3ccc(OC(F)F)cc3)nc2C1)c1ccccc1Cl` (single isomer, unassigned) [Compound 66] came in with a half-maximal activity concentration (AC50) of 13 nM and a PKR % activation of 142%.

In turn, `C[C@@H](O)[C@@H](C(=O)N1Cc2cn(S(=O)(=O)c3ccc(OC(F)F)cc3)nc2C1)c1ccccc1Cl` (single isomer, unassigned) [Compound 68] gave an AC50 of 10 nM and a PKR % activation of 179%.

`CC(O)C(C(=O)N1Cc2cn(S(=O)(=O)c3ccc4ncsc4c3)nc2C1)c1ccccc1Cl` (single isomer, unassigned) [Compound 69]: the AC50 is 4.7 nM.

The molecule `C[C@@H](O)[C@@H](C(=O)N1Cc2cn(S(=O)(=O)c3cnc4c(c3)OCCO4)nc2C1)c1ccccc1Cl` (single isomer, unassigned) [Compound 70] had an AC50 of 15 nM and a PKR % activation of 80%.

In turn, `O=C(C(CO)c1ccccc1Cl)N1Cc2cn(S(=O)(=O)c3cnc4c(c3)OCCO4)nc2C1` (single isomer, unassigned) [Compound 71, (2S,3R)-2-(2-chlorophenyl)-1-(2-[2H,3H[1,4]dioxino[2,3-b]pyridine-7-sulfonyl]-4H,6H-pyrrolo[3,4-c]pyrazol-5-yl)-3-hydroxybutan-1-one or (2R,3R)-2-(2-chlorophenyl)-1-(2-[2H,3H-[1,4]dioxino[2,3-b]pyridine-7-sulfonyl]-4H,6H-pyrrolo[3,4-c]pyrazol-5-yl)-3-hydroxybutan-1-one] yielded an AC50 of 8.9 nM.

`O=C([C@H](O)c1ncccc1F)N1Cc2cn(S(=O)(=O)c3ccc4ncsc4c3)nc2C1` (single isomer, unassigned) [Compound 74, (2R)-1-[2-(1,3-benzothiazole-6-sulfonyl)-2H,4H,5H,6H-pyrrolo[3,4-c]pyrazol-5-yl]-2-(3-fluoropyridin-2-yl)-2-hydroxyethan-1-one or (2S)-1-[2-(1,3-benzothiazole-6-sulfonyl)-2H,4H,5H,6H-pyrrolo[3,4-c]pyrazol-5-yl]-2-(3-fluoropyridin-2-yl)-2-hydroxyethan-1-one]: half-maximal activity (AC50) was put at 8.5 nM and the PKR % activation was found to be 100%.

For `COc1ccc(S(=O)(=O)n2cc3c(n2)CN(C(=O)[C@H](O)c2ncccc2F)C3)cc1` (single isomer, unassigned) [Compound 87, (2R)-2-(3-fluoropyridin-2-yl)-2-hydroxy-1-[2-(4-methoxybenzenesulfonyl)-2H,4H,5H,6H-pyrrolo[3,4-c]pyrazol-5-yl]ethan-1-one or (2R)-2-(3-fluoropyridin-2-yl)-2-hydroxy-1-[2-(4-methoxybenzenesulfonyl)-2H,4H,5H,6H-pyrrolo[3,4-c]pyrazol-5-yl]ethan-1-one], the AC50 was found to be 25 nM and the PKR % activation was 156%.

Consider `O=C([C@H](CO)c1ncccc1F)N1Cc2cn(S(=O)(=O)c3ccc(OC(F)F)cc3)nc2C1` (single isomer, unassigned) [Compound 89, (2S)-1-{2-[4-(difluoromethoxy)benzenesulfonyl]-2H,4H,5H,6H-pyrrolo [3,4-c]pyrazol-5-yl}-2-(3-fluoropyridin-2-yl)-3-hydroxypropan-1-one or (2R)-1-{2-[4-(difluoromethoxy)benzenesulfonyl]-2H,4H,5H,6H-pyrrolo[3,4-c]pyrazol-5-yl}-2-(3-fluoropyridin-2-yl)-3-hydroxypropan-1-one], for which the AC50 was 7.9 nM and the PKR % activation was 132%.

The molecule `O=C1CN([C@@H](C(=O)N2Cc3cn(S(=O)(=O)c4ccc(OC(F)F)cc4)nc3C2)c2ccccc2)C1` (single isomer, unassigned) [Compound 92, 1-[(1R)-2-{2-[4-(difluoromethoxy)benzenesulfonyl]-2H,4H,5H,6H-pyrrolo[3,4-c]pyrazol-5-yl}-2-oxo-1-phenylethyl]azetidin-3-one or 1-[(1S)-2-{2-[4-(difluoromethoxy)benzenesulfonyl]-2H,4H,5H,6H-pyrrolo[3,4-c]pyrazol-5-yl}-2-oxo-1-phenylethyl]azetidin-3-one] showed an AC50 of 800 nM and a PKR % activation of 120%.

`O=C1CN([C@@H](C(=O)N2Cc3cn(S(=O)(=O)c4ccc(OC(F)F)cc4)nc3C2)c2ccccc2)C1` (single isomer, unassigned) [Compound 93, 1-[(1R)-2-{2-[4-(difluoromethoxy)benzenesulfonyl]-2H,4H,5H,6H-pyrrolo[3,4-c]pyrazol-5-yl}-2-oxo-1-phenylethyl]azetidin-3-one or 1-[(1S)-2-{2-[4-(difluoromethoxy)benzenesulfonyl]-2H,4H,5H,6H-pyrrolo[3,4-c]pyrazol-5-yl}-2-oxo-1-phenylethyl]azetidin-3-one] gave an AC50 of 5550 nM and a PKR % activation of 84%.

In turn, `O=C([C@@H](c1ccccc1)N1CCC1=O)N1Cc2cn(S(=O)(=O)c3ccc(OC(F)F)cc3)nc2C1` (single isomer, unassigned) [Compound 99, 1-[(1R)-2-{2[4-(difluoromethoxy)benzenesulfonyl]-2H,4H,5H,6H-pyrrolo[3,4-c]pyrazol-5-yl}-2-oxo-1-phenylethyl]azetidin-2-one or 1-[(1S)-2-{2-[4-(difluoromethoxy)benzenesulfonyl]-2H,4H,5H,6H-pyrrolo[3,4-c]pyrazol-5-yl}-2-oxo-1-phenylethyl]azetidin-2-one] displayed an AC50 of 190 nM and a PKR % activation of 92%.

Regarding `O=C([C@@H](c1ccccc1)N1CCC1=O)N1Cc2cn(S(=O)(=O)c3ccc(OC(F)F)cc3)nc2C1` (single isomer, unassigned) [Compound 100, 1-[(1R)-2-{2-[4-(difluoromethoxy)benzenesulfonyl]-2H,4H,5H,6H-pyrrolo[3,4-c]pyrazol-5-yl}-2-oxo-1-phenylethyl]azetidin-2-one or 1-[(1S)-2-{2-[4-(difluoromethoxy)benzenesulfonyl]-2H,4H,5H,6H-pyrrolo[3,4-c]pyrazol-5-yl}-2-oxo-1-phenylethyl]azetidin-2-one], the AC50 was > 10000 nM and the PKR % activation is given as 0%.

Molecule `O=C([C@H](CO)c1ncccc1F)N1Cc2cn(S(=O)(=O)c3ccc4ncccc4c3)nc2C1` (single isomer, unassigned) [Compound 102, (2S)-2-(3-fluoropyridin-2-yl)-3-hydroxy-1-[2-(quinoline-6-sulfonyl)-2H,4H,5H,6H-pyrrolo[3,4-c]pyrazol-5-yl]propan-1-one or (2R)-2-(3-fluoropyridin-2-yl)-3-hydroxy-1-[2-(quinoline-6-sulfonyl)-2H,4H,5H,6H-pyrrolo[3,4-c]pyrazol-5-yl]propan-1-one] registered an AC50 of 12 nM and a PKR % activation of 81%.
